# Experimental data: US20120251525A1, “METHOD OF UTILIZING AZELAIC ACID ESTERS TO MODULATE COMM[…] BY […]” (priority 2009, published 2012)
# How the values were obtained:
# EpiDerm tissues = test: MatTek EpiDerm in vitro human skin model, croton oil irritant, multiplex immunoassay of markers; format: cell-based; conditions: for tissue levels of IL-17 / tissue levels of MIP-1-alpha: relative to control (croton oil only)
# [1] = test system: various fibroblastic lines; conditions: Geier et al. 1986; cited from earlier work
# [2] = test system: human cutaneous malignant melanoma; conditions: Zaffaroni et al. 1990; cited from earlier work
# human choroidal melanoma = conditions: Breathnach et al. 1989; cited from earlier work
# [3] = test system: human squamous cell carcinoma; conditions: Paetzold et al. 1989; cited from earlier work
# [4] = clinical practice; cited from earlier work
# [5] = growth medium, croton oil, 24 hours, relative to control
# [6] = tissue, croton oil, 24 hours, relative to control
Structure (SMILES),IL-8 modulation (EpiDerm tissues; matrix not stated),IL-17 modulation (EpiDerm tissues; matrix not stated),IL-23 modulation (EpiDerm tissues; matrix not stated),tissue levels of IL-17 (EpiDerm tissues; tissue),tissue levels of MIP-1-alpha (EpiDerm tissues; tissue),IL-1-beta medium marker level (EpiDerm tissues; [5]),IL-4 medium marker level (EpiDerm tissues; [5]),IL-10 medium marker level (EpiDerm tissues; [5]),TNF-alpha medium marker level (EpiDerm tissues; [5]),IL-1-beta tissue level (EpiDerm tissues; [6]),IL-4 tissue level (EpiDerm tissues; [6]),IL-10 tissue level (EpiDerm tissues; [6]),TNF-alpha tissue level (EpiDerm tissues; [6]),antiproliferative and cytotoxic action [1],antiproliferative and cytotoxic action [2],antiproliferative and cytotoxic action (human choroidal melanoma),antiproliferative and cytotoxic action [3],major dose limiting toxicity [4]
"CCOC(=O)CCCCCCCC(=O)OCC [DEA, diethyl azelate]",suppressing,suppressing,suppressing,exceedingly high relative to control,elevated relative to control,,,,,,,,,,,,,
"COC(=O)CCCCCCCC(=O)OC [DMA, dimethylazelate]",,,,,,increased,increases,increases,increased,decreased relative to control,decreased relative to control,decreased relative to control,decreased relative to control,,,,,
O=C(O)CCCCCCCC(=O)O [azelaic acid],,,,significantly lower than control,elevated relative to control,,,,,,,,,antiproliferative and cytotoxic action,antiproliferative and cytotoxic action,antiproliferative and cytotoxic action,antiproliferative and cytotoxic action,skin irritation
